This note sets out measurements from patent US9029359B2, “Heteroaryl Btk inhibitors” (Biogen Idec MA, Inc., priority 2009, dated 2015).

A word on the IC50: it is the concentration at which inhibition is half-maximal.

In this assay the target is T1, BTK (Homo sapiens, UniProt Q06187).
T1 construct: purchased Upstate 14-552
As to the kind of experiment: In vitro BTK kinase assay: BTK-POLYGAT-LS ASSAY. In kind it is biochemical. The settings on record: ATP 10 uM. The procedure: In vitro BTK kinase assay: BTK-POLYGAT-LS ASSAY. The purpose of the BTK in vitro assay is to determine compound potency against BTK through the measurement of IC50. […] A 24 μL aliquot of a ATP/peptide master mix (final concentration; ATP 10 μM, polyGAT 100 nM) in kinase buffer (10 mM Tris-HCl pH 7.5, 10 mM MgCl2, 200 μM Na3VO4, 5 mM DTT, 0.01% Triton X-100, and 0.2 mg/ml Casein) is added to each well. […] The assay is incubated for 30 minutes before being stopped with 28 μL of a 50 mM EDTA solution. […] The plate is covered and incubated for 45 minutes at room temperature. Time resolved fluorescence (TRF) on Molecular Devices M5 (332 nm excitation; 488 nm emission; 518 nm fluorescein emission) is measured.

Where only a bound is given, the exact number is not on record here.

T1 sequence (Q06187 whole entry): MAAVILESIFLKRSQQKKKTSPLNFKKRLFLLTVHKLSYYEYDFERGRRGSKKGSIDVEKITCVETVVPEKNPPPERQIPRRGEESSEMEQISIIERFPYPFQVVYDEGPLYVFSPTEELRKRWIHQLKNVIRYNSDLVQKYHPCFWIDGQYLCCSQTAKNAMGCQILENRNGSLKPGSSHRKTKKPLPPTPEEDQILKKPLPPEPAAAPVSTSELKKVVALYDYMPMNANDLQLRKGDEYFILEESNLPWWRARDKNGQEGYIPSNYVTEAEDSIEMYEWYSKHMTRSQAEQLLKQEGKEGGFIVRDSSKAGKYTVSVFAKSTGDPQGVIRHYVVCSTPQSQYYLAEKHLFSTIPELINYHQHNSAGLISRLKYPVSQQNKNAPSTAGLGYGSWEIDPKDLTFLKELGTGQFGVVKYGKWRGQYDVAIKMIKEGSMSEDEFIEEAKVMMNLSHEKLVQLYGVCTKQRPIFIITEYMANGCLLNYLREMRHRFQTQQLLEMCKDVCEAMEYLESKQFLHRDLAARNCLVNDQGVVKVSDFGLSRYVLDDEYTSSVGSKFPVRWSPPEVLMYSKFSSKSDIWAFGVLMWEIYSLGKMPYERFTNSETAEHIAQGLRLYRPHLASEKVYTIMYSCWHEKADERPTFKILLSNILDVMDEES

`Cc1cc(NCC(=O)NC2CCCN(c3ncnc4[nH]ccc34)C2)n(C(C)(C)C)n1` (stereo not shown) [Example 58, (N-(1-(7H-pyrrolo[2,3-d]pyrimidin-4-yl)piperidin-3-yl)-2-(1-tert-butyl-3-methyl-1H-pyrazol-5-ylamino)acetamide)] came in with an IC50 of over 10000 nM.
Then `Cn1ccc2c(N3CCC[C@@H](NC(=O)[C@H](Nc4cc(F)cc(Cl)c4)C4CC4)C3)ncnc21` [Example 136, (R)-2-(3-chloro-5-fluorophenylamino)-2-cyclopropyl-N—((R)-1-(7-methyl-7H-pyrrolo[2,3-d]pyrimidin-4-yl)piperidin-3-yl)acetamide], with 100 to 999 nM; and `O=C(CNc1cc(C(F)(F)F)ccc1N1CCCCC1)N[C@@H]1CCCN(c2ncnc3[nH]ccc23)C1` [Example 423], with 1000 to 10000 nM.
`CN1CCN(S(=O)(=O)c2ccccc2NCC(=O)N[C@@H]2CCCN(c3ncnc4[nH]ccc34)C2)CC1` [Example 377] came in with an IC50 of 1000 to 10000 nM.
`O=C(CNc1ccccc1F)N[C@@H]1CCCN(c2ncnc3[nH]ccc23)C1` [Example 318] had an IC50 of 100 to 999 nM.
In the case of `O=C(CNc1ccccc1S(=O)(=O)N1CCC(C(F)(F)F)CC1)N[C@@H]1CCCN(c2ncnc3[nH]ccc23)C1` [Example 217], the IC50 is under 100 nM.
Compound `O=C(CNc1cccc(N2CCCC2)c1)NC1CCCN(c2ncnc3[nH]ccc23)C1` (stereo not shown) [Example 56, (N-(1-(7H-pyrrolo[2,3-d]pyrimidin-4-yl)piperidin-3-yl)-2-(3-(pyrrolidin-1-yl)phenylamino)acetamide)] gave an IC50 of 100 to 999 nM.
In turn, `CC(C)(C)[C@@H](Nc1cccc(Cl)c1)C(=O)N[C@@H]1CCCN(c2ncnc3[nH]ccc23)C1` [Example 255] came in with an IC50 of under 100 nM.
Consider `Nc1ncnc(N2CCC[C@@H](NC(=O)CNc3cc(Cl)cc(Cl)c3)C2)c1Cl` [Example 140, (R)—N-(1-(6-amino-5-chloropyrimidin-4-yl)piperidin-3-yl)-2-(3,5-dichlorophenylamino)acetamide], for which the IC50 was in the range of 100 to 999 nM.
Then `Cc1ccc(NCC(=O)N[C@@H]2CCCN(c3ncnc4[nH]ccc34)C2)cc1F` [Example 293], with 100 to 999 nM.
Then `O=C(CNc1ccccc1S(=O)(=O)c1ccc(C(F)(F)F)cc1)N[C@@H]1CCCN(c2ncnc3[nH]ncc23)C1` [Example 235], with under 100 nM; and `Cc1ccc(NCC(=O)N[C@@H]2CCCN(c3ncnc4[nH]ccc34)C2)cc1C` [Example 258], with 100 to 999 nM; and `O=C(CNC(=O)C1CCCCC1)NC1CCCN(c2ncnc3[nH]ccc23)C1` (stereo not shown) [Example 99, (N-(2-(1-(7H-pyrrolo[2,3-d]pyrimidin-4-yl)piperidin-3-ylamino)-2-oxoethyl)cyclohexanecarboxamide)], with 1000 to 10000 nM.
`CC[C@@H](Nc1cc(F)cc(Cl)c1)C(=O)N[C@@H]1CCCN(c2ncnc3[nH]ccc23)C1` [Example 225] showed a half-maximal inhibitory concentration (IC50) of under 100 nM.
Then `CCC[C@@H](Nc1ccccc1)C(=O)N[C@@H]1CCCN(c2ncnc3[nH]ccc23)C1` [Example 257], with 100 to 999 nM; and `CC(C)[C@@H](Nc1cccc(Cl)c1)C(=O)N[C@@H]1CCCN(c2ncnc3[nH]ccc23)C1` [Example 112, (R)—N—((R)-1-(7H-pyrrolo[2,3-d]pyrimidin-4-yl)piperidin-3-yl)-2-(3-chlorophenylamino)-3-methylbutanamide], with under 100 nM; and `O=C(CNc1cccc2c1CCC2)N[C@@H]1CCCN(c2ncnc3[nH]ccc23)C1` [Example 324], with 100 to 999 nM.
As for `O=C([C@H](Nc1cc(F)cc(Cl)c1)C1CC1)N1CCCCC12CCCN(c1ncnc3[nH]ccc13)C2` (stereo partly shown) [Example 379], the IC50 was in the range of 1000 to 10000 nM.
Take `O=C(CNc1cccc(C(F)(F)F)c1F)NC1CCCN(c2ncnc3[nH]ccc23)C1` (stereo not shown) [Example 70, (N-(1-(7H-pyrrolo[2,3-d]pyrimidin-4-yl)piperidin-3-yl)-2-(2-fluoro-3-(trifluoromethyl)phenylamino)acetamide)]: the IC50 was in the range of 100 to 999 nM.
Then `CCC[C@@H](Nc1cccc2c1OC(F)(F)O2)C(=O)N[C@@H]1CCCN(c2ncnc3[nH]ncc23)C1` [Example 371], with 100 to 999 nM; and `O=C(CNc1ccccc1)N(CCc1ccccc1)C1CCCN(c2ncnc3[nH]ccc23)C1` (stereo not shown) [Example 87, (N-(1-(7H-pyrrolo[2,3-d]pyrimidin-4-yl)piperidin-3-yl)-N-phenethyl-2-(phenylamino)acetamide)], with 100 to 999 nM; and `O=C(CNc1cccc(F)c1F)N[C@@H]1CCCN(c2ncnc3[nH]ccc23)C1` [Example 422], with 100 to 999 nM.
Then `O=C(CNc1c(F)cccc1F)N[C@@H]1CCCN(c2ncnc3[nH]ccc23)C1` [Example 321], with 100 to 999 nM.
Then `CC(O)c1cccc(NCC(=O)NC2CCCN(c3ncnc4[nH]ccc34)C2)c1` (stereo not shown) [Example 341], with over 10000 nM.
Consider `O=C(CNc1ccccc1S(=O)(=O)N1CCOCC1)N[C@@H]1CCCN(c2ncnc3[nH]ccc23)C1` [Example 243], for which the 50% inhibitory concentration (IC50) was under 100 nM.
The compound `O=C(CNc1ccccc1OC1CCCCC1)N[C@@H]1CCCN(c2ncnc3[nH]ccc23)C1` [Example 266] returned an IC50 of under 100 nM.
Regarding `COc1ccc(C(C)(C)C)cc1NCC(=O)N[C@@H]1CCCN(c2ncnc3[nH]ccc23)C1` [Example 442], the concentration for half-maximal inhibition (IC50) was 1000 to 10000 nM.
Turning to `CC[C@@H](C)[C@@H](Nc1ccccc1)C(=O)N[C@@H]1CCCN(c2ncnc3[nH]ccc23)C1` [Example 117, (2R,3R)—N—((R)-1-(7H-pyrrolo[2,3-d]pyrimidin-4-yl)piperidin-3-yl)-3-methyl-2-(phenylamino)pentanamide], the IC50 was in the range of 100 to 999 nM.
Then `C[C@H]1CCN(c2ncnc3[nH]ncc23)C[C@@H]1NC(=O)CNc1ccccc1S(=O)(=O)N1CCCCC1` [Example 366], with under 100 nM.
Consider `CC[C@@H](Nc1ccccc1C(C)C)C(=O)N[C@@H]1CCCN(c2ncnc3[nH]ncc23)C1` [Example 294], for which the IC50 fell in the range of 100 to 999 nM.
Then `Cn1ccc(NCC(=O)NC2CCCN(c3ncnc4[nH]ccc34)C2)n1` (stereo not shown) [Example 80, (N-(1-(7H-pyrrolo[2,3-d]pyrimidin-4-yl)piperidin-3-yl)-2-(1-methyl-1H-pyrazol-3-ylamino)acetamide)], with 1000 to 10000 nM; and `CN(C1CCCC1)S(=O)(=O)c1ccccc1NCC(=O)N[C@@H]1CCCN(c2ncnc3[nH]ncc23)C1` [Example 211], with under 100 nM; and `C[C@@H](O)[C@@H](Nc1cc(F)cc(Cl)c1)C(=O)N[C@@H]1CCCN(c2ncnc3[nH]ccc23)C1` [Example 408], with 1000 to 10000 nM.
Then `COc1ccccc1NCC(=O)NC1CCCN(c2ncnc3[nH]ccc23)C1` (stereo not shown) [Example 37, (N-(1-(7H-pyrrolo[2,3-d]pyrimidin-4-yl)piperidin-3-yl)-2-(2-methoxyphenylamino)acetamide)], with 100 to 999 nM.
Turning to `COc1cccc(NCC(=O)NC2CCCN(c3nccc4[nH]ccc34)C2)c1OC` (stereo not shown) [Example 340], the half-inhibitory concentration (IC50) is over 10000 nM.
In the case of `O=C(CNc1ccc(F)c(C(F)(F)F)c1)NC1CCCN(c2ncnc3[nH]ccc23)C1` (stereo not shown) [Example 74, (N-(1-(7H-pyrrolo[2,3-d]pyrimidin-4-yl)piperidin-3-yl)-2-(4-fluoro-3-(trifluoromethyl)phenylamino)acetamide)], the IC50 lay in the range of 1000 to 10000 nM.
Then `C[C@H](O)[C@@H](Nc1cc(F)cc(Cl)c1)C(=O)N[C@@H]1CCCN(c2ncnc3[nH]ccc23)C1` [Example 306], with 100 to 999 nM.
